# Measured values reported in publication PMC6965176, “Targeting Forward and Reverse EphB4/EFNB2 Signaling by a Peptide with Dual Functions” (Scientific Reports, 2020).
# Non-standard residues stand in square brackets, D forms with d. No end group written: not given here.
# How the values were obtained:
# [1] = Transmission electron microscopy particle size; type: physicochemical; conditions: transmission electron microscopy (Fig. 3C)
# Protocol: examined with a JEM 1010 transmission electron microscope (JEOL USA, Inc., Peabody, MA) at an accelerating voltage of 80 kV. Digital images were obtained using the AMT Imaging System (Advanced Microscopy Techniques Corp., Danvers, MA).
# Surface plasmon resonance (SPR) binding and competition assays. A stock solution of EphB4 in PBS (100 µg/mL) was diluted to 25 µg/mL with 10 mM sodium acetate buffer (pH 4.5) and immobilized to CM5 sensor chips using the amine coupling reaction according to manufacturer-provided procedures (BIACore). Briefly, the surfaces of the chips in flow cells (FC)- 1 and FC-2 were activated by exposing chips to a mixture of 200 mM N-ethyl-N’- dimethylaminopropyl carbodiimide and 50 mM N-hydroxysuccinimide for 7 min. FC-1 was used as a reference surface and was directly deactivated by injecting 1 M ethanolamine at pH 8.5 for 7 min. […]
# Binding assays were performed in duplicate at 25°C in HBSEP running buffer. […] Thus, all analyzed samples, including a sample of the running buffer, were additionally injected onto an uncoated reference surface. The association rate (Kon) and dissociation rate (Koff) were calculated by fitting binding chromatogram data using the BIACore evaluation software with a 1:1 Langmuir binding model. […]
# [2] = tested on: EphB4 and Crk1 (MAPK14); assay: EphB4 and Crk1 phosphorylation in A2780cp20 cells (IP/immunoblot); type: cell-based, human; conditions: 50 nM (BIDEN-AP equivalent), 24 h after 16 h serum-free (Fig. S7A)
# Text: Next, we determined the phosphorylation of EphB4 and its downstream adaptor protein Crk1 (MAPK14) in lysates from human A2780cp20 ovarian cancer cells by immunoprecipitation with anti-EphB4 and anti-Crk1 antibodies followed by immunoblotting with phospho-specific antibodies. […] In comparison, Alexa647-labeled antagonist TNYL-RAW was excluded.
# Figure 2 BIDEN-AP acts as an EphB4 agonist. (A) BIDEN-AP induced phosphorylation of EphB4 and the associated MAPK14 (Crk1). […] The uncropped blots are presented in Supplemental Figure 11. (B) BIDEN-AP inhibited A2780cp20 cell invasion compared to untreated controls (CTL). A modified Boyden transwell chamber coated with Matrigel was used. Representative data from three independent experiments using A2780cp20 cells are presented. Each experiment was repeated in triplicate. Data are shown as mean ± SD. ***p < 0.001 by unpaired, two-sided Student t-test. […]
# calculated as Koff/Kon. […]
# The capacity of BIDEN-AP to inhibit the binding of EFNB2 to EphB4 was assessed in a competitive binding assay. […] After each injection, the signal from the control flow cell was subtracted and the relative amount of EphB4 bound to EFNB2-Fc was recorded as the net response over the pre-injection baseline level. […]
# The protein concentrations were determined by using a BCA Protein Assay Reagent kit (Pierce Biotechnology, Rockford, IL). […]
# [3] = tested on: orthotopic A2780cp20-Luc ovarian tumors; assay: Orthotopic A2780cp20-Luc ovarian cancer model
# Protocol: (A) Schema for in vivo orthotopic A2789cp20-Luc model and treatment. Female nude mice were intraperitoneally inoculated with A2789cp20-Luc tumor cells. Beginning on day 7 after inoculation, each mouse received 10 intraperitoneal injections of BIDEN-AP or CCPM-BIDEN-AP (bold arrows) at a dose 13 mg/kg/injection every other day for a total of 10 doses. Tumor growth was monitored by bioluminescence imaging (IVIS). (B,C) Representative bioluminescence images on day 28 after tumor cell inoculation (B) and corresponding quantification of signal intensity (C) of mice bearing orthotopic A2780cp20-Luc tumors (n = 4). (D,E) Tumor weight (D) and number of tumor nodules (E) per treatment group (n = 8). (F) Images of tumor nodules from each treatment group. Data are expressed as mean ± SD. *p < 0.05, **p < 0.01, ****p < 0.0001 by Student t-test. CTL, untreated controls.
# Female athymic nude mice (NCr-nu) were obtained from Harlan Laboratories (Indianapolis, IN) at age 4 to 6 weeks and kept under sterile conditions. For all therapeutic experiments, groups of the mice were inoculated intraperitoneally with A2780cp20-Luc cells (1×10^6 cells/mouse). The mice were treated with BIDEN-AP or CCPM-BIDEN-AP at a dose of 13 mg equivalent drug/kg per injection for a total of 10 doses every other day starting on day 7 after tumor cell inoculation. Untreated mice were used as a control. On day 31, all mice were euthanized and necropsied, and their tumors were harvested. Tumor weight and number and location of tumor nodules were recorded. Tumor tissue was fixed in formalin for paraffin embedding, frozen in optimal cutting temperature medium for frozen slide preparation, or snap-frozen for lysate preparation.
# On day 7, day 14, day 21, and day 28 after tumor inoculation, mice received a tail vein injection of D-luciferin (4 mg/kg) and their tumor burden was assessed by luciferase activity using the Xenogen IVIS-200 imaging system (Perkin Elmer, Shelton, CT). The bioluminescence imaging signal generated in mice was quantified using Living Image V.2.11 software and IGOR image analysis software (V.4.02 A; WaveMetrics, Portland, OR). The region of interest was manually selected, and the signal intensity was expressed in terms of the number of photons/s/cm^2.
# incubated overnight at 4°C. After washing, the slides were incubated with Alexa488-conjugated goat anti-rabbit secondary antibody for 60 min. Slides were subjected to recombinant terminal
# deoxynucleotidyl transferase (rTdT)–mediated dUTP nick-end labeling (TUNEL) by using the
# DeadEnd Fluorometric TUNEL System assay kit (Promega) after CD31 staining by immersing
# slides in 4% formaldehyde in PBS for 15 min. A 20 µg/mL proteinase K solution (Promega) was
# added to each slide (100 µL per slide), and the slides were incubated at room temperature for 8-
# 10 min. Slides were washed twice with PBS, 100 µL equilibration buffer (Promega) was added to
# each, and the slides were again incubated for 5-10 min. The slides were then labeled by adding
# 50 µL of fluorescein-12-dUTP as a substrate, and the rTdT was added. Each slide was covered
# with a plastic coverslip to ensure even distribution of the labeling solution and incubated for 60
# min at 37°C in a humidified chamber. The reaction was stopped by immersing slides in 2x SSC
# solution (87.7g NaCl, 44.1g sodium citrate, pH 7.0, in 500 mL) for 15 min. After washing with PBS,
substance,measurement,setting,value
CCPM-BIDEN-AP: nanoconjugate of BIDEN-AP with core-crosslinked polymeric micelles (CCPM) (TN[dY]LFSPNGPIARAW; also: conjugated to core-crosslinked polymeric micelles (CCPM)),mean diameter,[1],24 ± 3 nm
same,EphB4 and Crk1 phosphorylation in vitro (agonist activity),[2],potent agonist activity
same,bioluminescence signal intensity of tumors,"[3]; day 28 after inoculation, 13 mg/kg/injection i.p. every other day, 10 doses from day 7, n = 4 (Fig. 5A-C)",significantly reduced the bioluminescence signal intensity
same,"metastatic nodules, comparison of the two agents","[3]; day 31, 13 mg/kg/injection i.p., 10 doses (Fig. 5E,F)",reduced metastatic nodules to a greater extent than BIDEN-AP
same,tumor growth in the peritoneum (tumor weight and number of metastatic nodules) versus controls,"[3]; day 31 after inoculation, 13 mg/kg/injection i.p., 10 doses, n = 8 (Fig. 5D)",significantly reduced tumor growth in the peritoneum
same,apoptotic cell death in CD31+ endothelial vasculature within tumor stroma,"[3]; excised A2780cp20 tumors, CD31/TUNEL co-staining, versus untreated control (Fig. 6A-C)",induced apoptotic cell death
same,angiogenesis in tumors (microvessel density),"[3]; excised A2780cp20 tumors, CD31 staining (Fig. 6A-C)",suppressed angiogenesis in tumors
same,tumor cell proliferation (Ki67-positive cells),"[3]; excised A2780cp20 tumors, Ki67 IHC (Fig. 6D,E)",significantly reduced tumor cell proliferation
same,EphB4 and Crk1 phosphorylation in vivo in tumors,"[3]; orthotopic A2780cp20 tumors of treated mice, IP/immunoblot (Fig. S7B)",induce EphB4 and Crk1 phosphorylation
